Assay results published in patent US20260085071A1, “NOVEL CRYSTALLINE FORM OF 1-(8-BROMOPYRIDO[2,3- E][1,2,4]TRIAZOLO[4,3-A]PYRAZIN-4-YL)-NMETHYLAZETIDIN- 3-AMINE” (JW PHARMACEUTICAL CORPORATION, priority 2022, published 2026).

Assays:
[1] = Thermodynamic (thermal) stability of crystalline form; type: physicochemical; settings: solid crystalline form
Description: TGA experiments were conducted using a TGA550 instrument from TA Instruments. About 1-10 mg of sample was loaded into a ceramic pan for the measurements. The sample temperature was ramped from 25 to 500° C. at 10° C./min. Nitrogen was used as the purge gas at a flow rate of 50 mL/min.
DSC: Heating rate of 10° C./min under a nitrogen atmosphere. About 1-2 mg of sample was loaded into an open aluminum pan for the measurements. Instrument Q20 from TA Instruments.

[2] = Stress testing at high temperature and high humidity; type: physicochemical; settings: high temperature (60° C.) and high humidity (75%) for 4 weeks
[3] = Stability of polymorphic form during gentle drying; type: physicochemical; settings: pure polymorphic forms from crystallization experiments
[4] = test system: inflammatory cells such as mast cells and eosinophils; settings: background statement, U.S. Pat. No. 9,586,959; cited from earlier work
histamine 4 receptor = histamine 4 receptor (Homo sapiens, UniProt Q9H3N8); settings: background statement, U.S. Pat. No. 9,586,959; cited from earlier work

Row | thermodynamically stable up to [1] | stability during stress testing [2] | stability during gentle drying [3] | Compound | effects against histamine induced infiltration of inflammatory cells [4] | histamine 4 receptor inhibitory effect (histamine 4 receptor)
1 | up to 273 °C | stable | stable | CNC1CN(c2nc3ncc(Br)cc3n3cnnc23)C1 [Form A, 1-(8-bromopyrido[2,3-e][1,2,4]triazolo[4,3-a]pyrazin-4-yl)-N-methylazetidine-3-amine] |  | 
2 |  |  |  | CNC1CN(c2nc3ncc(Br)cc3n3cnnc23)C1 [1-(8-bromopyrido[2,3-e][1,2,4]triazolo[4,3-a]pyrazin-4-yl)-N-methylazetidin-3-amine] | suppressive effects | strong
